Experimental data from ChEMBL document CHEMBL4270563, “Neurogenic and neuroprotective donepezil-flavonoid hybrids with sigma-1 affinity and inhibition of key enzymes in Alzheimer's disease” (Eur J Med Chem, 2018).
The source made the active and inactive calls. No cut-off for these calls is given here.

Experiments:
[1] = molecular target: T1, Polyunsaturated fatty acid 5-lipoxygenase (Homo sapiens, UniProt P09917); experiment: Inhibition of human 5-lipoxygenase using arachidonic acid as substrate pretreated for 10 mins followed by substrate and ATP addition and measured after 20 mins by H2DCFDA probe based fluorescence assay
T1 sequence (P09917 whole entry): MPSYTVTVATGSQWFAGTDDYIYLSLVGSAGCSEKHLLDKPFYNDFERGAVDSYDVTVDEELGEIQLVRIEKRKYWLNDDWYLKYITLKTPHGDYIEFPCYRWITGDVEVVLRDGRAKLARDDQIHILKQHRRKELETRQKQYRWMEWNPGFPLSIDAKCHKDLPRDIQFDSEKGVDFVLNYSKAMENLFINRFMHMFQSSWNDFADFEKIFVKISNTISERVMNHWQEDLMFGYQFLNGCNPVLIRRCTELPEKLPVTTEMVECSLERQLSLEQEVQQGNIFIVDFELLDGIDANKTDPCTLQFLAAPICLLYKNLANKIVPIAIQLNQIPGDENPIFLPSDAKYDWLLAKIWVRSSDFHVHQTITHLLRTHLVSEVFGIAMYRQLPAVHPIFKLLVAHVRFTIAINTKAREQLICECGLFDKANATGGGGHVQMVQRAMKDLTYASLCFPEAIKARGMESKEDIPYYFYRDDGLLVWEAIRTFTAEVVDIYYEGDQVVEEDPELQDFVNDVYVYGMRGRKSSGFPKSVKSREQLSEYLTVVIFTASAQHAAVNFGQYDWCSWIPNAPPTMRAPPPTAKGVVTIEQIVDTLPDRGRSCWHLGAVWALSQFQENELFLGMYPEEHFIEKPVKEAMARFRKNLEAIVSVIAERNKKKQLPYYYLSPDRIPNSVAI

Acetylcholinesterase [2] = molecular target: T2, Acetylcholinesterase (Homo sapiens, UniProt P22303); experiment: Inhibition of recombinant human AChE expressed in HEK293 cells using acetylthiocholine iodide as substrate pretreated for 5 mins followed by substrate addition and measured for 5 mins by Ellman's method
T2 sequence (P22303 whole entry): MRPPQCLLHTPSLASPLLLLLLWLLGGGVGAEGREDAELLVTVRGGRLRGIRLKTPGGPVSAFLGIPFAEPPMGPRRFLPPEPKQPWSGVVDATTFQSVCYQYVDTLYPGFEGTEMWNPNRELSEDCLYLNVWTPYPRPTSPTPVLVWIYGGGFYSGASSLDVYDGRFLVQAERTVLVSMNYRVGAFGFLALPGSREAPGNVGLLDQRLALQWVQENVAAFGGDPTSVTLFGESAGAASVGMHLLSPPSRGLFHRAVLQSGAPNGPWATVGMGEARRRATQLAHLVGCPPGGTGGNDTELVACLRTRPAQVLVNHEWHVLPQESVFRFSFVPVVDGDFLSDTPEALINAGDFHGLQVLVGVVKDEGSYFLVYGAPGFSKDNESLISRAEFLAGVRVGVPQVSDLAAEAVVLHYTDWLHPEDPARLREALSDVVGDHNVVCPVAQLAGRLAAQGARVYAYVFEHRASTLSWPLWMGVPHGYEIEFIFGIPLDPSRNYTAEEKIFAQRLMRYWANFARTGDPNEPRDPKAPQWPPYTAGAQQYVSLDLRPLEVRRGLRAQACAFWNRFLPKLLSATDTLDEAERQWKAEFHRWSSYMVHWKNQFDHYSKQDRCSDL

Cholinesterase = Cholinesterase (Homo sapiens, UniProt P06276); experiment: Inhibition of human serum BuChE using butyrylthiocholine as substrate pretreated for 5 mins followed by substrate addition and measured for 5 mins by Ellman's method
Cholinesterase, sequence (P06276 whole entry): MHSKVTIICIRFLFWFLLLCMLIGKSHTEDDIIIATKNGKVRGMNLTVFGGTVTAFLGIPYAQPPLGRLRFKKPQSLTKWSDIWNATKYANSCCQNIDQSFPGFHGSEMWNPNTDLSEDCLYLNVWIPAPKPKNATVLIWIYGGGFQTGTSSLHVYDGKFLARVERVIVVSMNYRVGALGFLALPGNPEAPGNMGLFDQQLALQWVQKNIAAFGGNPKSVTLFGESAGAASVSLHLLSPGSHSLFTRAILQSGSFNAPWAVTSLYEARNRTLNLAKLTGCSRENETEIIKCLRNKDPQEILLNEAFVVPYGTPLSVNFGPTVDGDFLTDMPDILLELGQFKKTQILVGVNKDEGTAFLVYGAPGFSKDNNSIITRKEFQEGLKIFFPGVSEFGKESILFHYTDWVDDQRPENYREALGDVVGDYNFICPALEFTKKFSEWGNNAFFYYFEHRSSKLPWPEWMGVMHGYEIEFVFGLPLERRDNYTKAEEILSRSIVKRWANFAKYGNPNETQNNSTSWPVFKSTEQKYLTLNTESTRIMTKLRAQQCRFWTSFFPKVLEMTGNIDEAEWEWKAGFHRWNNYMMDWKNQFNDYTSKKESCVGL

[3] = molecular target: T3, Polyunsaturated fatty acid 5-lipoxygenase (Homo sapiens) (UniProt P09917); experiment: Inhibition of human 5-lipoxygenase at 10 uM using arachidonic acid as substrate pretreated for 10 mins followed by substrate and ATP addition and measured after 20 mins by […] probe based fluorescence assay relative to control
T3 sequence (whole entry): T1 sequence (P09917 whole entry)

Homo sapiens = species: Homo sapiens; experiment: Selectivity index, ratio of IC50 for human serum BuChE to IC50 for recombinant human AChE expressed in HEK293 cells; type: cell-based
[4] = molecular target: T4, Sigma intracellular receptor 2 (Rattus norvegicus, UniProt Q5U3Y7); experiment: Displacement of [3H]DTG from sigma2 receptor in rat liver membranes by liquid scintillation counting method; type: cell membranes, Membrane
T4 sequence (Q5U3Y7 whole entry): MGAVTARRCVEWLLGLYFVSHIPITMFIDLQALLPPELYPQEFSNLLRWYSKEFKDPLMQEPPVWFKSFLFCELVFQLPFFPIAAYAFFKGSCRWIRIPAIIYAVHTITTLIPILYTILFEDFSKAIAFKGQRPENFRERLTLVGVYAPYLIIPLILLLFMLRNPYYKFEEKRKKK

[5] = molecular target: T5, Amine oxidase [flavin-containing] A (Homo sapiens, UniProt P21397); experiment: Inhibition of recombinant human MAO-A expressed in baculovirus infected BTI insect cells using p-tyramine as substrate pretreated for 15 mins followed by substrate addition by horse-radish peroxidase/amplex red-based fluorescence method
T5 sequence (P21397 whole entry): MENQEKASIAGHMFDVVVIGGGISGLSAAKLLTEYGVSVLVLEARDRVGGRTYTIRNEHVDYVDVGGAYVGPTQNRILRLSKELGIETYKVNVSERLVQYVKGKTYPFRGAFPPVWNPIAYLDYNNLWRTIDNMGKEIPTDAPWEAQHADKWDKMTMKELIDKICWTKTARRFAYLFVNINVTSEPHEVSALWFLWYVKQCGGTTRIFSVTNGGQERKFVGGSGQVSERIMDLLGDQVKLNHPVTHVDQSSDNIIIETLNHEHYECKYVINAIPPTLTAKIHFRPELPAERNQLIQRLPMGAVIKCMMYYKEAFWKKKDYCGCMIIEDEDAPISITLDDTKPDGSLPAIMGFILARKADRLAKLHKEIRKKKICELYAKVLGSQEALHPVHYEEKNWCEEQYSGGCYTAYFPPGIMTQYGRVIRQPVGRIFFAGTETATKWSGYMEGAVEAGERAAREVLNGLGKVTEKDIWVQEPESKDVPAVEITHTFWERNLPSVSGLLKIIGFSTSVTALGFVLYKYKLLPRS

[6] = Antioxidant activity assessed as trolox equivalent of AAPH-induced radical scavenging activity pretreated for 15 mins followed by APPH challenge measured every minute for 80 mins by ORAC-FL assay; type: functional
[7] = Selectivity ratio of Ki for displacement of [3H]DTG from sigma2 receptor in rat liver membranes to Ki for displacement of (+)-[3H]pentazocine from guinea pig brain membrane sigma1 receptor; type: cell membranes
Acetylcholinesterase [8] = molecular target: T2, Acetylcholinesterase; experiment: Inhibition of recombinant human AChE expressed in HEK293 cells using varying levels of acetylthiocholine iodide as substrate by Lineweaver-burk plot analysis
in vitro = settings: PAMPA, pH 7.4
Description: Permeability of the compound in pH 7.4 PBS by PAMPA-BBB assay

[9] = molecular target: Sigma non-opioid intracellular receptor 1 (Cavia porcellus, UniProt Q60492); experiment: Displacement of (+)-[3H]pentazocine from guinea pig brain membrane sigma1 receptor by liquid scintillation counting method
Sigma non-opioid intracellular receptor 1, sequence (Q60492 whole entry): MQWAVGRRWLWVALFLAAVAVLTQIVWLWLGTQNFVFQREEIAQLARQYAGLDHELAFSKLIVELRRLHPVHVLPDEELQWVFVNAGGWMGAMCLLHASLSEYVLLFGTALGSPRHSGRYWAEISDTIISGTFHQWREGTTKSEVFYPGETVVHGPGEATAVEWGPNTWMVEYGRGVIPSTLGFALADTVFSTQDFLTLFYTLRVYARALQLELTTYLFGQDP

[10] = molecular target: T6, Amine oxidase [flavin-containing] B (Homo sapiens, UniProt P27338); experiment: biochemical; type: cell-based
T6 sequence (P27338 whole entry): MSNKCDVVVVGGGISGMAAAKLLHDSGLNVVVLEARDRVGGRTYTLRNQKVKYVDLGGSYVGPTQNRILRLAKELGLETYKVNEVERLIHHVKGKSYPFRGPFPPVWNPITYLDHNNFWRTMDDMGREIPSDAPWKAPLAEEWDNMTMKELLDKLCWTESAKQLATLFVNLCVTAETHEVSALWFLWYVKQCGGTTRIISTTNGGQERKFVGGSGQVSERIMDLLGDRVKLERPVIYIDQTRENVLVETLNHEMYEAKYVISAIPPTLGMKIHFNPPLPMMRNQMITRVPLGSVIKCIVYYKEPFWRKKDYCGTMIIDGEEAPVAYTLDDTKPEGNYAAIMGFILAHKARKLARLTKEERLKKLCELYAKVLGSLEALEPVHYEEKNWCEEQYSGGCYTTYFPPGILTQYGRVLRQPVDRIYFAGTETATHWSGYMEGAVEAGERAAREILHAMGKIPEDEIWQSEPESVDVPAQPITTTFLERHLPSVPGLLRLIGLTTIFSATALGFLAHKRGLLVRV
Description: Inhibition of recombinant human MAO-B expressed in baculovirus infected BTI insect cells using p-tyramine as substrate pretreated for 15 mins followed by substrate addition by horse-radish peroxidase/amplex red-based fluorescence method

[11] = Antioxidant activity assessed as trolox equivalent of AAPH-induced radical scavenging activity at 10 uM pretreated for 15 mins followed by APPH challenge measured every minute for 80 mins by ORAC-FL assay; type: functional

Row | SMILES | IC50 [1] [µM] | IC50 (Acetylcholinesterase [2]) [µM] | IC50 (Cholinesterase) [µM] | inhibition [3] [%] | Ratio IC50 (Homo sapiens) | Ki [4] [µM] | IC50 [5] [µM] | Activity (umolequiv/umol) [6] | Ratio Ki [7] | Ki (Acetylcholinesterase [8]) [µM] | Papp (in vitro) [×10⁻⁶ cm/s] | Ki [9] [µM] | IC50 [10] [µM] | Activity [11]
1 | COc1cc2oc(C(=O)NCC3CCN(Cc4ccccc4)CC3)cc(=O)c2cc1OC | > 100 | 1.46 | > 10 | 45 | > 6.8 |  |  |  |  |  |  |  |  | 
2 | O=C(NCCCC1CCN(Cc2ccccc2)CC1)c1cc(=O)c2cc(O)ccc2o1 | 15.1 | 0.023 | > 10 |  | > 435 | 0.301 | > 100 | 1.3 | 87 | 0.011 | 4.5 | 0.00348 | > 100 | 
3 | COc1ccc2c(=O)cc(C(=O)NCCC3CCN(Cc4ccccc4)CC3)[nH]c2c1 | > 100 | 0.45 | > 10 | 31 | > 22 | 0.376 | 72.7 |  | 8 |  | 10.9 | 0.0452 | 56.4 | inactive
4 | COc1cccc2c(=O)cc(C(=O)NCCC3CCN(Cc4ccccc4)CC3)[nH]c12 | > 100 | 1.64 | > 10 | 47 | > 6.1 |  | 52.4 |  |  |  | 15.3 |  | 71.6 | inactive
5 | O=C(NCCC1CCN(Cc2ccccc2)CC1)c1cc(=O)c2cc(O)c(O)cc2o1 | 4.2 | 4.13 | > 10 |  | > 2.4 | 0.278 | 70.5 | 1.7 | 10 |  | 3.2 | 0.027 | 37.9 | 
6 | COc1cc(OC)c2c(=O)cc(C(=O)NCCC3CCN(Cc4ccccc4)CC3)oc2c1 |  | 0.32 | 6.3 |  | 20 |  |  |  |  |  | 8.8 |  |  | 
7 | COc1ccc2oc(C(=O)NCC3CCN(Cc4ccccc4)CC3)cc(=O)c2c1 |  | 3.61 | > 10 |  | > 2.8 |  |  |  |  |  | 6.8 |  |  | 
8 | COc1cc2nc(C(=O)NCCC3CCN(Cc4ccccc4)CC3)cc(OC)c2cc1OC |  | 0.62 | 8.79 |  | 14 |  |  |  |  |  | 13 |  |  | 
9 | O=C(NCCC1CCN(Cc2ccccc2)CC1)c1cc(=O)c2ccccc2o1 | > 100 | 0.11 | 5.09 | 24 | 46 |  |  |  |  | 0.057 | 6.7 |  |  | 
10 | COc1cccc2oc(C(=O)NCCC3CCN(Cc4ccccc4)CC3)cc(=O)c12 |  | 0.87 | > 10 |  | > 12 |  |  |  |  |  |  |  |  | 
11 | COc1ccc2oc(C(=O)NCCCC3CCN(Cc4ccccc4)CC3)cc(=O)c2c1 | 82.4 | 0.37 | 5.8 |  | 16 |  | > 100 |  |  |  | 10.6 |  | > 100 | inactive
12 | COc1ccc2oc(C(=O)OCC3CCN(Cc4ccccc4)CC3)cc(=O)c2c1 |  | 7.49 | > 10 |  | > 1.3 |  |  |  |  |  | 6.1 |  |  | 
13 | COc1cc2[nH]c(C(=O)NCCC3CCN(Cc4ccccc4)CC3)cc(=O)c2cc1OC | > 100 | 0.17 | > 10 | 31 | > 59 | 0.487 | > 100 |  | 13 | 0.06 | 5.3 | 0.0363 | > 100 | inactive
14 | COc1cc2oc(C(=O)OCCC3CCN(Cc4ccccc4)CC3)cc(=O)c2cc1OC |  | 0.056 | > 10 |  |  |  |  |  |  | 0.011 |  |  |  | 
15 | COc1ccc2oc(C(=O)NCCC3CCN(Cc4ccccc4)CC3)cc(=O)c2c1 | > 100 | 0.17 | 6.5 | 33 | 38 |  | > 100 |  |  |  | 10 |  | > 100 | 
16 | COc1ccc2[nH]c(C(=O)NCCC3CCN(Cc4ccccc4)CC3)cc(=O)c2c1 | > 100 | 0.88 | > 10 | 31 | > 11 | 0.459 | > 100 |  | 64 |  | 12 | 0.0072 | > 100 | inactive
17 | COc1ccc2c(=O)cc(C(=O)NCCC3CCN(Cc4ccccc4)CC3)oc2c1 | > 100 | 0.033 | 9.9 | 31 | 300 |  | > 100 |  |  |  | 7.6 |  | > 100 | 
18 | O=C(NC1CCN(Cc2ccccc2)CC1)c1cc(=O)c2cc(O)ccc2o1 | > 100 | 2.36 | > 10 | 48 | > 4.2 |  |  |  |  |  | 1.9 |  |  | 
19 | Nc1ccc2oc(C(=O)NCCC3CCN(Cc4ccccc4)CC3)cc(=O)c2c1 | 28.9 | 0.041 | 4.3 |  | 105 | 0.421 | > 100 | 0.9 | 290 | 0.062 | 7.6 | 0.00145 | > 100 | 
20 | O=C(NCCC1CCN(Cc2ccccc2)CC1)c1cc(=O)c2c(O)cc(O)cc2o1 | 95.1 | 0.58 | > 10 |  | > 17 |  |  | 0.8 |  |  | 3.7 |  |  | 
21 | COc1cc2oc(C(=O)NCCCC3CCN(Cc4ccccc4)CC3)cc(=O)c2cc1OC | > 100 | 0.11 | > 10 | 48 | > 91 |  | > 100 |  |  | 0.021 | 5 |  | > 100 | inactive
